# Tested on: KM12-luc cells
# Assay: Cell proliferation and growth inhibition assay (CCK-8) in KM12-luc
# Assay type: cell-based
# Conditions: KM12-Luc, 72 h, KM12-luc cells, treated with test compounds for 72 hrs, CCK-8 viability; read-out: NTRK IC50 in KM12-luc
# Outline: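 Cells were grown at 37 °C, 5% CO2 with 10% FBS: MV-4-11 in IMDM, H1975 in RPMI 1640, KM12-luc in DMEM. Viability was read by CCK-8 (1-4 hrs reagent incubation, absorbance at OD450). IC50 came from a non-linear sigmoidal dose-response fit.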
row,Structure (SMILES),IC50
1,"CC(=O)Nc1cc(Nc2ncc(C(F)(F)F)c(-c3c[nH]c4ccccc34)n2)ccc1NCCN(C)C [Compound 303a, N-(5-((4-(1H-indol-3-yl)-5-(trifluoromethyl)pyrimidin-2-yl)amino)-2-((2-(dimethylamino)ethyl)amino)phenyl)acetamide]",0.0191 µM

# Tested on: H1975 cells
# Assay: Cell proliferation and growth inhibition assay (CCK-8) in H1975
# Assay type: cell-based
# Conditions: Homo sapiens, NCI-H1975, 72 h, treated with test compounds for 72 hrs, CCK-8 viability, read-out: EGFR IC50 in H1975
# Description: MV-4-11 and H1975 cells were obtained from the American Type Culture Collection and KM12-luc cells were obtained from JCRB Cell Bank. All cell lines were maintained at 37° C. with 5% C02, in media supplemented with 10% fetal bovine serum and penicillin (100 units/mL) and streptomycin (100 μg/mL). MV-4-11 cells were maintained in Iscove's Modified Dubecco's Medium, H1975 cells were cultured with RPMI 1640 media, and KM12-luc cells were maintained in Dulbecco's Modification of Eagle's Medium. CCK-8 reagent was obtained from Yeasen.
# Cell proliferation was assessed by CCK-8 assay (Yeasen) per the manufacturer's instructions. The MV-4-11 (AML), H1975, and KM12-luc cells were seeded at 30,000, 3,000 and 2,500 cells per well onto 96-well plates, and after a 24 h incubation, the cells were treated with test compounds for 72 hrs. Cell viability was assayed by incubating the cells with CCK-8 reagent for 1-4 hrs. Absorbance was measured at OD450 using the Beckman DTX880. The data was calculated using GraphPad Prism version 6.01. The IC50 values were fitted using a non-linear regression model with a sigmoidal dose response.
row,IC50,Structure (SMILES)
1,0.109 µM,"CC(=O)Nc1cc(Nc2ncc(C(F)(F)F)c(-c3c[nH]c4ccccc34)n2)ccc1NCCN(C)C [Compound 303a, N-(5-((4-(1H-indol-3-yl)-5-(trifluoromethyl)pyrimidin-2-yl)amino)-2-((2-(dimethylamino)ethyl)amino)phenyl)acetamide]"
2,1.02 µM,"CC(=O)Nc1cc(Nc2nccc(-c3c[nH]c4c(F)cccc34)n2)ccc1N(C)CCN(C)C [Compound 546, N-(2-((2-(dimethylamino)ethyl)(methyl)amino)-5-((4-(7-fluoro-1H-indol-3-yl)pyrimidin-2-yl)amino)phenyl)acetamide]"
3,0.0674 µM,"CCC(=O)Nc1cc(Nc2ncc(C(F)(F)F)c(-c3c[nH]c4c(OC)cccc34)n2)ccc1N(C)CCN(C)C [Compound 543, N-(2-((2-(dimethylamino)ethyl)(methyl)amino)-5-((4-(7-methoxy-1H-indol-3-yl)-5-(trifluoromethyl)pyrimidin-2-yl)amino)phenyl)propionamide]"
4,0.791 µM,"COc1cnc(Nc2ccc(N(C)CCN(C)C)c(N)c2)nc1-c1c[nH]c2c(C)cccc12 [Compound 532, N^1-(2-(dimethylamino)ethyl)-N^1-methyl-N^4-(5-methoxy-4-(7-methyl-1H-indol-3-yl)pyrimidin-2-yl)benzene-1,2,4-triamine]"
5,0.999 µM,"CCC(=O)Nc1cc(Nc2ncc(F)c(-c3c[nH]c4c(F)cccc34)n2)ccc1N(C)CCN(C)C [Compound 522, N-(2-((2-(dimethylamino)ethyl)(methyl)amino)-5-((5-fluoro-4-(7-fluoro-1H-indol-3-yl)pyrimidin-2-yl)amino)phenyl)propionamide]"
6,0.406 µM,"CC(=O)Nc1cc(Nc2ncc(F)c(-c3c[nH]c4c(C)cccc34)n2)ccc1N(C)CCN(C)C [Compound 525, N-(2-((2-(dimethylamino)ethyl)(methyl)amino)-5-((5-fluoro-4-(7-methyl-1H-indol-3-yl)pyrimidin-2-yl)amino)phenyl)acetamide]"
7,0.837 µM,"COc1cnc(Nc2ccc(N(C)CCN(C)C)c(N)c2)nc1-c1c[nH]c2c(OC)cccc12 [Compound 536, N^1-(2-(dimethylamino)ethyl)-N^1-methyl-N^4-(5-methoxy-4-(7-methoxy-1H-indol-3-yl)pyrimidin-2-yl)benzene-1,2,4-triamine]"
8,0.958 µM,"COc1cccc2c(-c3nc(Nc4ccc(N(C)CCN(C)C)c(NC(C)=O)c4)ncc3F)c[nH]c12 [Compound 529, N-(2-((2-(dimethylamino)ethyl)(methyl)amino)-5-((5-fluoro-4-(7-methoxy-1H-indol-3-yl)pyrimidin-2-yl)amino)phenyl)acetamide]"
9,0.0804 µM,"CCC(=O)Nc1cc(Nc2ncc(C(F)(F)F)c(-c3c[nH]c4c(C)cccc34)n2)ccc1N(C)CCN(C)C [Compound 542, N-(2-((2-(dimethylamino)ethyl)(methyl)amino)-5-((4-(7-methyl-1H-indol-3-yl)-5-(trifluoromethyl)pyrimidin-2-yl)amino)phenyl)propionamide]"
10,0.769 µM,"CCC(=O)Nc1cc(Nc2ncc(F)c(-c3c[nH]c4c(OC)cccc34)n2)ccc1N(C)CCN(C)C [Compound 530, N-(2-((2-(dimethylamino)ethyl)(methyl)amino)-5-((5-fluoro-4-(7-methoxy-1H-indol-3-yl)pyrimidin-2-yl)amino)phenyl)propionamide]"
11,3.68 µM,"CCC(=O)Nc1cc(Nc2ncc(OC)c(-c3c[nH]c4c(OC)cccc34)n2)ccc1N(C)CCN(C)C [Compound 538, N-(2-((2-(dimethylamino)ethyl)(methyl)amino)-5-((5-methoxy-4-(7-methoxy-1H-indol-3-yl)pyrimidin-2-yl)amino)phenyl)propionamide]"
12,0.682 µM,"Cc1cccc2c(-c3ccnc(Nc4ccc(N(C)CCN(C)C)c(N)c4)n3)c[nH]c12 [Compound 549, N^1-(2-(dimethylamino)ethyl)-N^1-methyl-N^4-(4-(7-methyl-1H-indol-3-yl)pyrimidin-2-yl)benzene-1,2,4-triamine]"
13,1.54 µM,"CC(=O)Nc1cc(Nc2nccc(-c3c[nH]c4c(C)cccc34)n2)ccc1N(C)CCN(C)C [Compound 551, N-(2-((2-(dimethylamino)ethyl)(methyl)amino)-5-((4-(7-methyl-1H-indol-3-yl)pyrimidin-2-yl)amino)phenyl)acetamide]"
14,1.14 µM,"COc1cccc2c(-c3ccnc(Nc4ccc(N(C)CCN(C)C)c(N)c4)n3)c[nH]c12 [Compound 553, N^1-(2-(dimethylamino)ethyl)-N^4-(4-(7-methoxy-1H-indol-3-yl)pyrimidin-2-yl)-N^1-methylbenzene-1,2,4-triamine]"
15,0.0954 µM,"CCC(=O)Nc1cc(Nc2ncc(C(F)(F)F)c(-c3c[nH]c4c(F)cccc34)n2)ccc1N(C)CCN(C)C [Compound 540, N-(2-((2-(dimethylamino)ethyl)(methyl)amino)-5-((4-(7-fluoro-1H-indol-3-yl)-5-(trifluoromethyl)pyrimidin-2-yl)amino)phenyl)propionamide]"
16,2.25 µM,"CCC(=O)Nc1cc(Nc2nccc(-c3c[nH]c4c(OC)cccc34)n2)ccc1N(C)CCN(C)C [Compound 555, N-(2-((2-(dimethylamino)ethyl)(methyl)amino)-5-((4-(7-methoxy-1H-indol-3-yl)pyrimidin-2-yl)amino)phenyl)propionamide]"
17,1.18 µM,"CN(C)CCN(C)c1ccc(Nc2ncc(F)c(-c3c[nH]c4c(F)cccc34)n2)cc1N [Compound 520, N^1-(2-(dimethylamino)ethyl)-N^4-(5-fluoro-4-(7-fluoro-1H-indol-3-yl)pyrimidin-2-yl)-N-methylbenzene-1,2,4-triamine]"
18,1.51 µM,"CCC(=O)Nc1cc(Nc2nccc(-c3c[nH]c4c(C)cccc34)n2)ccc1N(C)CCN(C)C [Compound 550, N-(2-((2-(dimethylamino)ethyl)(methyl)amino)-5-((4-(7-methyl-1H-indol-3-yl)pyrimidin-2-yl)amino)phenyl)propionamide]"
19,0.425 µM,"Cc1cccc2c(-c3nc(Nc4ccc(N(C)CCN(C)C)c(N)c4)ncc3F)c[nH]c12 [Compound 524, N^1-(2-(dimethylamino)ethyl)-N^4-(5-fluoro-4-(7-methyl-1H-indol-3-yl)pyrimidin-2-yl)-N^1-methylbenzene-1,2,4-triamine]"
20,1.18 µM,"CCC(=O)Nc1cc(Nc2nccc(-c3c[nH]c4c(F)cccc34)n2)ccc1N(C)CCN(C)C [Compound 547, N-(2-((2-(dimethylamino)ethyl)(methyl)amino)-5-((4-(7-fluoro-1H-indol-3-yl)pyrimidin-2-yl)amino)phenyl)propionamide]"
21,0.656 µM,"CCC(=O)Nc1cc(Nc2ncc(F)c(-c3c[nH]c4c(C)cccc34)n2)ccc1N(C)CCN(C)C [Compound 526, N-(2-((2-(dimethylamino)ethyl)(methyl)amino)-5-((5-fluoro-4-(7-methyl-1H-indol-3-yl)pyrimidin-2-yl)amino)phenyl)propionamide]"
22,0.406 µM,"CCC(=O)Nc1cc(Nc2nc(-c3c[nH]c4c(OC)cccc34)c3cc[nH]c3n2)ccc1N(C)CCN(C)C [Compound 518, N-(2-((2-(dimethylamino)ethyl)(methyl)amino)-5-((4-(7-methoxy-1H-indol-3-yl)-7H-pyrrolo[2,3-d]pyrimidin-2-yl)amino)phenyl)propionamide]"
23,0.877 µM,"CN(C)CCN(C)c1ccc(Nc2nccc(-c3c[nH]c4c(F)cccc34)n2)cc1N [Compound 545, N^1-(2-(dimethylamino)ethyl)-N^1-methyl-N^4-(4-(7-fluoro-1H-indol-3-yl)pyrimidin-2-yl)benzene-1,2,4-triamine]"
24,1.3 µM,"CCC(=O)Nc1cc(Nc2ncc(OC)c(-c3c[nH]c4c(C)cccc34)n2)ccc1N(C)CCN(C)C [Compound 534, N-(2-((2-(dimethylamino)ethyl)(methyl)amino)-5-((5-methoxy-4-(7-methyl-1H-indol-3-yl)pyrimidin-2-yl)amino)phenyl)propionamide]"
25,0.298 µM,"COc1cccc2c(-c3nc(Nc4ccc(N(C)CCN(C)C)c(N)c4)ncc3F)c[nH]c12 [Compound 528, N^1-(2-(dimethylamino)ethyl)-N^1-methyl-N^4-(5-fluoro-4-(7-methoxy-1H-indol-3-yl)pyrimidin-2-yl)benzene-1,2,4-triamine]"
26,0.695 µM,"CC(=O)Nc1cc(Nc2ncc(F)c(-c3c[nH]c4c(F)cccc34)n2)ccc1N(C)CCN(C)C [Compound 521, N-(2-((2-(dimethylamino)ethyl)(methyl)amino)-5-((5-fluoro-4-(7-fluoro-1H-indol-3-yl)pyrimidin-2-yl)amino)phenyl)acetamide]"

# Same assay, conditions: treated with test compounds for 72 hrs, CCK-8 viability, read-out: EGFR IC50 in H1975
row,IC50,Structure (SMILES)
1,1.08 µM,"COc1cnc(Nc2ccc(N(C)CCN(C)C)c(NC(C)=O)c2)nc1-c1c[nH]c2c(C)cccc12 [Compound 537, N-(2-((2-(dimethylamino)ethyl)(methyl)amino)-5-((5-methoxy-4-(7-methyl-1H-indol-3-yl)pyrimidin-2-yl)amino)phenyl)acetamide]"
